Among the test systems are KM12 colon; SF-539 CNS; TK-10 renal; OVCAR-4 ovarian; EKVX NSCLC; HT29 colon; BT-549 breast; SNB-19 CNS; SNB-75 CNS; A498 renal.
Assay in all cases: growth of human tumour cells (NCI), 48 h

Several values for one entry are separate records, joined by “and”; a condition that tells them apart may be missing. Equal entries are not always repeated.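 Growth conditions: 96-well plates. Treatment: test compound, 48 hours, 5 concentrations. Analysis: linear interpolation between bracketing concentrations; unreached endpoints set to highest concentration. GI50 is the concentration that inhibits growth by half. TGI marks complete inhibition of growth.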

Take `COc1cc(Nc2cn[nH]c2-c2ccc(Cl)cc2)cc(OC)c1OC`: the GI50 with KM12 colon was 2.83 µM; with SF-539 CNS, 4.48 µM; with TK-10 renal it was 9.13 µM; in the experiment with OVCAR-4 ovarian, 7.93 µM; in the experiment on EKVX NSCLC, 5.21 µM; in the experiment with HT29 colon, 3.24 µM. Further, the GI50 with BT-549 breast was 3.37 µM; in the experiment on SNB-19 CNS, 6.96 µM; in the experiment with SNB-75 CNS, 1.14 µM; in the experiment with A498 renal, 4.58 µM. For the same compound, the TGI is 16.4 µM in the experiment with KM12 colon; 24.7 µM in the experiment on SF-539 CNS; 62.9 µM with TK-10 renal; > 100 µM in the experiment on OVCAR-4 ovarian; 52.7 µM in the experiment on EKVX NSCLC; 14.3 µM with HT29 colon. Besides, the TGI in the experiment with BT-549 breast is 19.2 µM; with SNB-19 CNS, > 69.3 µM; with SNB-75 CNS it was 7.66 µM; with A498 renal it was 23.8 µM.
Consider `COc1ccc2c(c1)C(C)Cc1c(Cl)ncnc1N2C` (stereo not given), for which the GI50 was 0.298 µM with KM12 colon; 0.471 µM in the experiment on SF-539 CNS; 1.06 µM in the experiment on TK-10 renal; 0.395 µM in the experiment with OVCAR-4 ovarian; 0.44 µM in the experiment on EKVX NSCLC; 0.33 µM in the experiment on HT29 colon. In addition, the GI50 in the experiment on BT-549 breast is 0.433 µM; in the experiment on SNB-19 CNS, 0.732 µM; with SNB-75 CNS, 0.557 µM; with A498 renal, 0.23 µM. Moreover, the TGI in the experiment with KM12 colon is 1.37 µM; in the experiment with SF-539 CNS it was 18.8 µM; with TK-10 renal it was 18.8 µM; in the experiment on OVCAR-4 ovarian, > 100 µM; with EKVX NSCLC, 29.9 µM; in the experiment with HT29 colon, 8.13 µM. The TGI is 18.4 µM in the experiment with BT-549 breast, > 100 µM in the experiment with SNB-19 CNS, > 54.6 µM with SNB-75 CNS and 0.744 µM in the experiment on A498 renal.
`Clc1coc2nc3ccccc3c(Nc3ccc4c(c3)OCO4)c12`: the GI50 with KM12 colon was 0.997 µM; in the experiment with SF-539 CNS, 2.46 µM; with TK-10 renal it was 2.59 µM; in the experiment on OVCAR-4 ovarian it was 22.8 µM; in the experiment on EKVX NSCLC, 5.35 µM; in the experiment with HT29 colon it was 0.601 µM. The GI50 was 5.19 µM with BT-549 breast, 1.8 µM with SNB-19 CNS, 4.36 µM in the experiment with SNB-75 CNS and 1.14 µM in the experiment with A498 renal. Also, the TGI in the experiment with KM12 colon was 12.5 µM; with SF-539 CNS, 7.42 µM; in the experiment with TK-10 renal, 17.4 µM; with OVCAR-4 ovarian, > 100 µM; in the experiment on EKVX NSCLC, 30.4 µM; in the experiment with HT29 colon, > 100 µM. For the same compound, the TGI with BT-549 breast is 27 µM; with SNB-19 CNS, > 100 µM; in the experiment with SNB-75 CNS, > 100 µM; in the experiment with A498 renal it was 5.82 µM.
In the case of `CC[C@]12C=CCN3CC[C@@]4(c5ccc(OC)cc5N(C)[C@H]4[C@@](O)(C(=O)OC)[C@@H]1OC(=O)CCC[P+](c1ccccc1)(c1ccccc1)c1ccccc1)[C@@H]32`, the GI50 was 0.274 µM and 0.527 µM in the experiment with KM12 colon; 0.648 µM and 0.769 µM in the experiment on SF-539 CNS; 1.59 µM and 1.28 µM with TK-10 renal; 0.317 µM and 0.322 µM in the experiment with OVCAR-4 ovarian; 1.17 µM and 2.73 µM in the experiment on EKVX NSCLC; 0.334 µM and 0.403 µM in the experiment on HT29 colon. The GI50 was 0.284 µM and 0.234 µM with BT-549 breast; 0.296 µM and 0.382 µM with SNB-19 CNS; 0.554 µM and 0.218 µM in the experiment on SNB-75 CNS; 1.71 µM and 1.97 µM in the experiment with A498 renal. Moreover, the TGI in the experiment on KM12 colon is 1.06 µM and 1.8 µM; with SF-539 CNS, 5.78 µM and 4.78 µM; in the experiment on TK-10 renal, 6.46 µM and 3.3 µM; in the experiment on OVCAR-4 ovarian, 6.1 µM and 2.32 µM; in the experiment with EKVX NSCLC, 10 µM and 18.2 µM; in the experiment on HT29 colon it was 4.91 µM and 2.78 µM. The TGI is 1.86 µM and 1.6 µM with BT-549 breast; 6.04 µM and 1.66 µM in the experiment with SNB-19 CNS; 3.58 µM and 1.23 µM in the experiment with SNB-75 CNS; 4.87 µM and 5.7 µM in the experiment with A498 renal.
Take `COc1ccc(C(=O)c2cc(OC)c(C)c(OC)c2)cc1OC(=O)CCl`: the GI50 was 0.13 µM with KM12 colon; 0.172 µM in the experiment with SF-539 CNS; 17.2 µM with TK-10 renal; 1.22 µM in the experiment on OVCAR-4 ovarian; 3.6 µM with EKVX NSCLC; 4.21 µM with HT29 colon. Moreover, the GI50 with BT-549 breast is 0.395 µM; in the experiment on SNB-19 CNS, 0.388 µM; in the experiment on SNB-75 CNS it was 0.154 µM; in the experiment on A498 renal it was 2.09 µM. Also, the TGI with KM12 colon was > 44.2 µM; in the experiment with SF-539 CNS it was 0.58 µM; with TK-10 renal, > 100 µM; in the experiment on OVCAR-4 ovarian, > 100 µM; in the experiment with EKVX NSCLC, > 100 µM; in the experiment with HT29 colon, 27.6 µM. The TGI in the experiment with BT-549 breast was 10.3 µM; in the experiment on SNB-19 CNS, > 100 µM; in the experiment on SNB-75 CNS it was > 100 µM; with A498 renal, 7.39 µM.
Consider `Oc1ccc(Cl)cc1Cc1cc(Cl)cc(Cl)c1O`, for which the GI50 in the experiment on KM12 colon is 4.34 µM; in the experiment with SF-539 CNS, 2.33 µM; in the experiment on TK-10 renal it was 7.88 µM; in the experiment on OVCAR-4 ovarian, 3.48 µM; with EKVX NSCLC it was 3.75 µM; in the experiment with HT29 colon it was 19.8 µM. Besides, the GI50 in the experiment on BT-549 breast is 3.32 µM; in the experiment on SNB-19 CNS, 3.83 µM; in the experiment on SNB-75 CNS, 5.14 µM; in the experiment with A498 renal, 8.73 µM. Also, the TGI with KM12 colon came to 19.8 µM; with SF-539 CNS it was 6.65 µM; in the experiment with TK-10 renal, 44.1 µM; with OVCAR-4 ovarian, 23.3 µM; with EKVX NSCLC, 62.5 µM; with HT29 colon, 43.9 µM. Further, the TGI in the experiment on BT-549 breast is 11.9 µM; with SNB-19 CNS, 28.9 µM; in the experiment with SNB-75 CNS, 40.8 µM; in the experiment with A498 renal it was 29.2 µM.
Regarding `COCCOc1cc(F)c2c(Nc3ccc(NC(=O)Cn4cc(C(C)C)nn4)cc3)ncnc2c1`, the GI50 in the experiment on KM12 colon was 1.16 µM; in the experiment with SF-539 CNS, 6.41 µM; with TK-10 renal, > 100 µM; in the experiment with OVCAR-4 ovarian it was 19.2 µM; in the experiment with EKVX NSCLC it was > 100 µM; in the experiment with HT29 colon it was > 100 µM. Besides, the GI50 was 33.6 µM with BT-549 breast, 41 µM in the experiment with SNB-19 CNS, 28.2 µM in the experiment with SNB-75 CNS and > 100 µM with A498 renal. The TGI in the experiment with KM12 colon, in the experiment on SF-539 CNS, with TK-10 renal, with OVCAR-4 ovarian, in the experiment on EKVX NSCLC and in the experiment with HT29 colon was > 100 µM each time. Besides, the TGI in the experiment on BT-549 breast, with SNB-19 CNS, with SNB-75 CNS and in the experiment with A498 renal was > 100 µM in each case.

Source of the values: PubChem BioAssay (NCI).
